Data from PubChem BioAssay (NCI).
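At the GI50, growth is halved. TGI denotes the concentration required for complete inhibition of growth.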

What was measured:
Assay in all cases: inhibition of tumour cell growth, NCI panel, 384-well format
BT-549 breast = test system: BT-549 breast
HCT-15 colon = test system: HCT-15 colon
MALME-3M melanoma = test system: MALME-3M melanoma
HOP-62 NSCLC = test system: HOP-62 NSCLC
LOX IMVI melanoma = test system: LOX IMVI melanoma
MDA-MB-231 breast = test system: MDA-MB-231 breast
SR leukemia = test system: SR leukemia
KM12 colon = test system: KM12 colon
SF-539 CNS = test system: SF-539 CNS
UACC-257 melanoma = test system: UACC-257 melanoma
HT29 colon = test system: HT29 colon
COLO 205 colon = test system: COLO 205 colon
RPMI-8226 leukemia = test system: RPMI-8226 leukemia

CS(=O)(=O)CCNCc1ccc(-c2ccc3ncnc(Nc4ccc(OCc5cccc(F)c5)c(Cl)c4)c3c2)o1
GI50 (BT-549 breast): 1650 nM
TGI (BT-549 breast): 3010 nM
GI50 (HCT-15 colon): 1450 nM
TGI (HCT-15 colon): 2790 nM
GI50 (MALME-3M melanoma): 1830 nM
TGI (MALME-3M melanoma): 3230 nM
GI50 (HOP-62 NSCLC): 2300 nM
TGI (HOP-62 NSCLC): 4950 nM
GI50 (LOX IMVI melanoma): 1800 nM
TGI (LOX IMVI melanoma): 3210 nM
GI50 (MDA-MB-231 breast): 1930 nM
TGI (MDA-MB-231 breast): 3400 nM
GI50 (SR leukemia): 2090 nM
TGI (SR leukemia): 3530 nM
GI50 (KM12 colon): 2210 nM
TGI (KM12 colon): 3720 nM
GI50 (SF-539 CNS): 1820 nM
TGI (SF-539 CNS): 3220 nM
GI50 (UACC-257 melanoma): 1990 nM
TGI (UACC-257 melanoma): 3420 nM
GI50 (HT29 colon): 1850 nM
TGI (HT29 colon): 3270 nM
GI50 (COLO 205 colon): 3780 nM
TGI (COLO 205 colon): 9050 nM
GI50 (RPMI-8226 leukemia): 1850 nM
TGI (RPMI-8226 leukemia): 3250 nM
